Patent US10323001B2, “Compositions for modulating a kinase cascade and methods of use thereof” (Athenex, Inc., priority 2006, dated 2019)
Where a name gives a salt, the structure may show the parent alone.

Columns and labels:
Assay type in all cases: physicochemical
[1] = Aqueous solubility study in buffers at 37° C.; conditions: overnight at 37° C.; for solubility: thermodynamic from solid
Method: The solubility of KX2-391 mesylate, Form A was determined in SGF (pH 2), acetate buffer (pH 4.5), and phosphate buffer (pH 7.2). Slurries of KX2-391 mesylate in the buffer solution were allowed to equilibrate overnight at 37° C. The solids were then isolated and the supernatant was diluted and analyzed by HPLC. The response of the supernatant was then compared against a calibration curve to determine the solubility.

Thermal stress = conditions: 60° C., one week
Method: Thermal stress experiments were performed on KX2-391.MSA, Form A. Each 1-dram amber vial was filled with approximately 20 mg of KX2-391.MSA, Form A capped and stored in a vacuum over at 60° C. for one week. The resulting solids were analyzed by XRPD and HPLC.

[2] = Slurry studies, 2 weeks at ambient conditions; conditions: for Form After 2 Weeks (XRPD): initial Form A
Excerpt: After 2 weeks slurry at ambient conditions, the solids were isolated and analyzed by XRPD and HPLC. No additional forms were observed by XRPD.

[3] = Pressure and grinding studies
[4] = Moisture-sorption analysis (Hiden IGAsorp); conditions: for Moisture Sorption Wt % Water @ 90% RH: mesylate
Method: Moisture-sorption experiments were performed using a Hiden IGAsorp Moisture Sorption instrument on KX2-391.MSA obtained in accordance with the process of the present invention (Example 4). First, the sample was dried at 0% Relative Humidity (RH) and 25° C. until an equilibrium weight was reached or for a maximum of four hours. The sample was then subjected to an isothermal (25° C.) adsorption scan from 10 to 90% RH in steps of 10%. The sample was allowed to equilibrate to an asymptotic weight at each point for a maximum of four hours. Following adsorption, a desorption scan from 85 to 0% RH (at 25° C.) was run in steps of −10% again allowing a maximum of four hours for equilibration to an asymptotic weight. The sample was then dried for one hour at 80° C. and the resulting solid analyzed by XRPD. […] FIG. 10 depicts percent change of water content as a function of relative humidity for KX2-391.MSA, Form A.
Moisture-sorption experiments were performed using a Hiden IGAsorp Moisture Sorption Instrument on KX2-391.2HCl obtained in accordance with the process of the present invention (Example 3). First, the sample was dried at 0% Relative Humidity (RH) and 25° C. until an equilibrium weight was reached or for a maximum of four hours. The sample was then subjected to an isothermal (25° C.) adsorption scan from 10 to 90% RH in steps of 10%. The sample was allowed to equilibrate to an asymptotic weight at each point for a maximum of four hours. Following adsorption, a desorption scan from 85 to 0% RH (at 25° C.) was run in steps of −10% again allowing a maximum of four hours for equilibration to an asymptotic weight. The sample was then dried for one hour at 80° C. and the resulting solid analyzed by XRPD.

[5] = slurry in Dioxane:water (~0.9:0.1)

- pH after slurry ([1]; SGF (pH 2.0)): 4.5
- pH after slurry ([1]; acetate (pH 4.5)): 4.4
- solubility ([1]; acetate buffer, aqueous buffer, acetate (pH 4.5)): 737 mg/mL
- pH after slurry ([1]; phosphate (pH 7.2)): 4.3
- solubility ([1]; phosphate buffer, aqueous buffer, phosphate (pH 7.2)): 150 mg/mL
- solubility ([1]; simulated gastric fluid, SGF (pH 2.0)): 700 mg/mL
- HPLC purity after thermal stress (Thermal stress): 99.3%
- HPLC Purity (AUC) after 2 weeks slurry ([2]; slurry in 1-butanol): >99%
- Form After 2 Weeks (XRPD) ([2]; slurry in 1-butanol): Form A
- HPLC Purity (AUC) after 2 weeks slurry [2, 5]: >99%
- Form After 2 Weeks (XRPD) [2, 5]: Form A
- HPLC Purity (AUC) after 2 weeks slurry ([2]; slurry in IPA): >99%
- Form After 2 Weeks (XRPD) ([2]; slurry in IPA): Form A
- HPLC Purity (AUC) after 2 weeks slurry ([2]; slurry in MeCN): >99%
- Form After 2 Weeks (XRPD) ([2]; slurry in MeCN): Form A
- HPLC Purity (AUC) after 2 weeks slurry ([2]; slurry in THF:water (~0.9:0.1)): >99%
- Form After 2 Weeks (XRPD) ([2]; slurry in THF:water (~0.9:0.1)): Form A
- hygroscopicity by moisture sorption analysis ([4]; 25° C., adsorption scan 10 to 90% RH): slightly-hygroscopic
- water absorbed at 60% RH ([4]; 60% RH, 25° C.): 1.1 wt %
- Moisture Sorption Wt % Water @ 90% RH ([4]; 25° C., listed as MSA): 5.7 wt %
- Moisture Sorption Wt % Water @ 90% RH ([4]; 25° C.): 5.7 wt %
- XRPD pattern of material resulting from the moisture sorption experiment ([4]; after adsorption/desorption scans and drying one hour at 80° C.): consistent with the starting form
SMILES: O=C(Cc1ccc(-c2ccc(OCCN3CCOCC3)cc2)cn1)NCc1ccccc1 [KX2-391.MSA, 2-(5-(4-(2-morpholinoethoxy)phenyl)pyridine-2-yl)-N-benzylacetamide mesylate]
- XRPD of solid after thermal stress (Thermal stress): consistent with the pattern of the initial KX2-391.MSA, Form A
- effect of physical stress on the crystalline form [3]: No change in crystalline form was observed
